Values of other authors, collected in patent US20140179719A1, “NOVEL AMORPHOUS SOLID DISPERSIONS OF VALGANCICLOVIR HYDROCHLORIDE” (priority 2012, published 2014).
Where two headings read alike, the source gives them in different places.

Details: ganciclovir administered orally

- bioavailability of ganciclovir, oral formulation: 6-10%
- bioavailability of ganciclovir, oral formulation (listed as gancilcovir): 6%
Structure (SMILES): Nc1nc(O)c2ncn(COC(CO)CO)c2n1 [Ganciclovir]
